Read-outs that look alike come from different tables or passages of the source.
Test: Stability of (7aS,2′S)-2-oxo-clopidogrel in plasma, screening of TCEP dosage (Example 4)
Assay type: in vitro ADME
Conditions: for recovery at 0 min, 0.1 ng/mL / recovery at 30 min, 0.1 ng/mL / recovery at 60 min, 0.1 ng/mL / recovery at 120 min, 0.1 ng/mL: theoretical 0.1 ng/mL; for recovery at 0 min, 0.1 ng/mL / recovery at 30 min, 0.1 ng/mL / recovery at 60 min, 0.1 ng/mL / recovery at 120 min, 0.1 ng/mL / recovery at 0 min, 12 ng/mL / recovery at 30 min, 12 ng/mL / recovery at 60 min, 12 ng/mL / recovery at 120 min, 12 ng/mL: read-out: Recovery rate; for recovery at 0 min, 12 ng/mL / recovery at 30 min, 12 ng/mL / recovery at 60 min, 12 ng/mL / recovery at 120 min, 12 ng/mL: theoretical 12.0 ng/mL
Procedure: S2. Plasma sample pre-treatment: taking 100 μl of the plasma, adding 5 μl of an internal standard working solution and 300 μl of acetonitrile respectively; after vortex mixing, centrifuging at 2-8° C. and 10,000 r/min for 10 min, and collecting the supernatant for later use.
S3. LC-MS/MS analysis: injecting 10 μl of the supernatant prepared from step S2 for determination, where the liquid chromatography conditions are: • the chromatographic column is Kinetex® 1.7 μm C18 100 A 100×2.1 mm; the column temperature is 40° C.; the mobile phase is acetonitrile-0.2% aqueous formic acid solution with a flow rate of 0.2 ml/min; and a gradient elution is carried out as specified in the table below:
ESI ion source, positive ion detection in multiple reaction monitoring mode (MRM); the quantitatively analyzed ions (7aS,2′S)-2-oxo-clopidogrel: m/z 338.100→155.000, IS: m/z 341.100→158.000, a capillary voltage of 4.0 KV, a cone voltage of 25 V, a desolvation gas temperature of 400° C. and a source temperature of 150° C. The optimal collision energy is 20 eV.
Blank plasma was taken and TCEP was added to prepare plasma containing TCEP at different concentrations (10, 50, 100 mg/ml). Subsequently, standard series solution of (7aS,2′S)-2-oxo-clopidogrel was added separately to prepare quality control samples with two concentrations of (7aS,2′S)-2-oxo-clopidogrel (0.1 and 12.0 ng/ml), 3 samples for each concentration. They were placed at room temperature and on ice, respectively, and the plasma samples at different placing time points were taken to examine the stability by pre-treating the plasma samples according to the method of S2 of Example 1, followed by LC/MS/MS determination according to the method of S3.

[1] = plasma containing TCEP 10 mg/ml, TCEP 10 mg/ml, on ice
[2] = plasma containing TCEP 10 mg/ml, TCEP 10 mg/ml, room temperature
[3] = plasma without TCEP, No TCEP, on ice
[4] = plasma without TCEP, No TCEP, room temperature
[5] = plasma, TCEP 50 mg/ml, room temperature
[6] = plasma, TCEP 100 mg/ml, room temperature

In the case of `COC(=O)[C@H](c1ccccc1Cl)N1CC[C@@H]2SC(=O)C=C2C1` [(7aS,2′S)-2-oxo-clopidogrel, methyl(S)-2-(2-chlorophenyl)-2-((S)-2-oxo-2,6,7,7a-tetrahydrothieno[3,2-c]pyridin-5 (4H)-yl)acetate], the “Stability in plasma (in words)” value (on ice compared with room temperature) is reported as “more stable when placed on ice than at room temperature”, the recovery at 0 min, 0.1 ng/mL [1] is reported as 96.5% and the recovery at 30 min, 0.1 ng/mL [1] is reported as 94.2%. It also gave a recovery at 60 min, 0.1 ng/mL [1] of 86.3%, a recovery at 120 min, 0.1 ng/mL [1] of 78.2% and a recovery at 0 min, 0.1 ng/mL [2] of 96.5%. The recovery at 30 min, 0.1 ng/mL [2] was 95.2%, the recovery at 60 min, 0.1 ng/mL [2] was 83.3% and the recovery at 120 min, 0.1 ng/mL [2] was 72.9%. For the same compound, the recovery at 0 min, 12 ng/mL [1] was 102%, the recovery at 30 min, 12 ng/mL [1] was 99.2% and the recovery at 60 min, 12 ng/mL [1] was 88.8%. For the same compound, the recovery at 120 min, 12 ng/mL [1] was 82.7%, the recovery at 0 min, 12 ng/mL [2] was 102% and the recovery at 30 min, 12 ng/mL [2] was 97.5%. The recovery at 60 min, 12 ng/mL [2] was 86.7%, the recovery at 120 min, 12 ng/mL [2] was 78.8% and the recovery at 0 min, 0.1 ng/mL (plasma containing TCEP 50 mg/ml, TCEP 50 mg/ml, room temperature) was 96.5%. The “Stability in plasma (in words)” value (plasma samples without TCEP) was “degraded fast”, the recovery at 0 min, 0.1 ng/mL [3] was 96.5% and the recovery at 30 min, 0.1 ng/mL [3] was 84.2%. It also gave a recovery at 60 min, 0.1 ng/mL [3] of 76.3%, a recovery at 120 min, 0.1 ng/mL [3] of 62.2% and a recovery at 30 min, 0.1 ng/mL [4] of 78.2%. For the same compound, the recovery at 60 min, 0.1 ng/mL [4] was 63.3%, the recovery at 120 min, 0.1 ng/mL [4] was 52.9% and the recovery at 0 min, 12 ng/mL [3] was 102%. For the same compound, the recovery at 30 min, 12 ng/mL [3] was 85.8%, the recovery at 60 min, 12 ng/mL [3] was 80.4% and the recovery at 120 min, 12 ng/mL [3] was 60.3%. It also gave a recovery at 0 min, 12 ng/mL [4] of 102%, a recovery at 30 min, 12 ng/mL [4] of 78.8% and a recovery at 60 min, 12 ng/mL [4] of 69.8%. It also gave a recovery at 120 min, 12 ng/mL [4] of 54.8%, a recovery at 0 min, 0.1 ng/mL (plasma, No TCEP, room temperature) of 96.5% and a recovery at 0 min, 0.1 ng/mL (plasma, TCEP 50 mg/ml, on ice) of 96.5%. The recovery at 30 min, 0.1 ng/mL (plasma, TCEP 50 mg/ml, on ice) was 95.6%, the recovery at 60 min, 0.1 ng/mL (plasma, TCEP 50 mg/ml, on ice) was 93.2% and the recovery at 120 min, 0.1 ng/mL (plasma, TCEP 50 mg/ml, on ice) was 91.1%. It also gave a recovery at 30 min, 0.1 ng/mL [5] of 93.5%, a recovery at 60 min, 0.1 ng/mL [5] of 91.4% and a recovery at 120 min, 0.1 ng/mL [5] of 89.5%. The recovery at 0 min, 12 ng/mL (plasma, TCEP 50 mg/ml, on ice) was 102%, the recovery at 30 min, 12 ng/mL (plasma, TCEP 50 mg/ml, on ice) was 102% and the recovery at 60 min, 12 ng/mL (plasma, TCEP 50 mg/ml, on ice) was 99.2%. It also gave a recovery at 120 min, 12 ng/mL (plasma, TCEP 50 mg/ml, on ice) of 95%, a recovery at 0 min, 12 ng/mL [5] of 102% and a recovery at 30 min, 12 ng/mL [5] of 101%. It also gave a recovery at 60 min, 12 ng/mL [5] of 99.2%, a recovery at 120 min, 12 ng/mL [5] of 88.3% and a recovery at 0 min, 0.1 ng/mL (plasma, TCEP 100 mg/ml, on ice) of 96.5%. For the same compound, the recovery at 30 min, 0.1 ng/mL (plasma, TCEP 100 mg/ml, on ice) was 95.8%, the recovery at 60 min, 0.1 ng/mL (plasma, TCEP 100 mg/ml, on ice) was 94.2% and the recovery at 120 min, 0.1 ng/mL (plasma, TCEP 100 mg/ml, on ice) was 95.1%. It also gave a recovery at 0 min, 0.1 ng/mL [6] of 96.5%, a recovery at 30 min, 0.1 ng/mL [6] of 95.5% and a recovery at 60 min, 0.1 ng/mL [6] of 93.4%. It also gave a recovery at 120 min, 0.1 ng/mL [6] of 91.5%, a recovery at 0 min, 12 ng/mL (plasma, TCEP 100 mg/ml, on ice) of 102% and a recovery at 30 min, 12 ng/mL (plasma, TCEP 100 mg/ml, on ice) of 103%. The recovery at 60 min, 12 ng/mL (plasma, TCEP 100 mg/ml, on ice) was 101%, the recovery at 120 min, 12 ng/mL (plasma, TCEP 100 mg/ml, on ice) was 98.3% and the recovery at 0 min, 12 ng/mL [6] was 102%. The recovery at 30 min, 12 ng/mL [6] was 102%, the recovery at 60 min, 12 ng/mL [6] was 99.2% and the recovery at 120 min, 12 ng/mL [6] was 96.7%.

Source: patent publication US20260140098A1, “METHOD FOR TREATING PLASMA SAMPLE CONTAINING (7aS,2'S)-2-OXO-CLOPIDOGREL AND METHOD FOR DETERMINING THE SAME” (CHENGDU SHIBEIKANG BIOMEDICAL TECHNOLOGY CO., LTD., priority 2021, published 2026)
